Here are results for seven compounds from PMC12396409, “Screening and hit evaluation of a microbial metabolite library against the pathogenic Plasmodium falciparum and Toxoplasma gondii parasites” (International Journal for Parasitology: Drugs and Drug …, 2025).

Where two headings read alike, the source gives them in different places.

Test [1] deals with P. falciparum 3D7 parasites. The test can be described thus: P. falciparum growth inhibition assay, 2-cycle (120 h treatment), delayed-death screen and dose-response. It counts as cell-based, Plasmodium falciparum. As to conditions: 120 h; for activity at 2 µg/mL: Plasmodium falciparum, 3D7.
In test [2] the test system is T. gondii RH strain (RH-Tub-eYFP) tachyzoites. In words: microbe, parasite or virus in culture. It counts as cell-based, Toxoplasma gondii. As to conditions: 72 h; for percent parasite growth at 2 µg/mL: Toxoplasma gondii.
Test [3] relates to P. falciparum 3D7 parasites. The test can be described thus: P. falciparum growth inhibition assay, 1-cycle (72 h treatment), SYBR DNA staining (library screen at 2 μg/mL and dose-response). It counts as cell-based, Plasmodium falciparum. The conditions noted are these: 72 h; for activity at 2 µg/mL: Plasmodium falciparum, 3D7.
Where [4] appears, read: library screen at 2 μg/mL, % growth, replicate 1.
Setting [5] is: library screen at 2 μg/mL, % growth, replicate 2.
Where [6] appears, read: T. gondii, 2 μg/mL, values are growth (% of control).
[7] abbreviates: P. falciparum, screen at 2 μg/mL, replicate 1.
Where [8] appears, read: P. falciparum, screen at 2 μg/mL, replicate 2.
The mark [9] stands for this setting: P. falciparum, parasite screen 2 μg/mL, % growth, replicate 1.
The mark [10] stands for this setting: P. falciparum, parasite screen 2 μg/mL, % growth, replicate 2.
Setting [11] is: T. gondii, parasite screen 2 μg/mL, % growth, replicate 1.
Setting [12] is: T. gondii, parasite screen 2 μg/mL, % growth, replicate 2.

Turning to `CO[C@H]1/C=C/C=C/C=C/C[C@H](OC(=O)[C@@H](C)NC(=O)C2CCCCC2)[C@H](C)[C@@H](O)/C(C)=C\CCC2=CC(=O)C=C(NC(=O)C1)C2=O` [Ansatrienin A], the Pf_120h_%Growth_Rep1 in test [1] (setting [4]) came to 4.00%. The Pf_120h_%Growth_Rep2 in test [1] (setting [5]) is -9.91%. Further, the Tg_72h_%Growth_Rep1 in test [2] (setting [4]) was 38.64%. This compound also registered a Tg_72h_%Growth_Rep2 in test [2] (setting [5]) of 44.79%. This compound displayed a Pf_72h_%Growth_Rep1 in test [3] (setting [4]) of 2.60%. This compound also returned a Pf_72h_%Growth_Rep2 in test [3] (setting [5]) of 3.94%.
In the case of `CCCCCC1=C/C(=C/c2[nH]c(-c3ccc[nH]3)cc2OC)N=C1C` [Prodigiosin], the activity at 2 µg/mL in test [1] (P. falciparum, parasite screen 2 μg/mL, % growth, replicate 1, read-out: Pf_120h_%Growth_Rep1) was -0.86%; in test [1] (P. falciparum, parasite screen 2 μg/mL, % growth, replicate 2, read-out: Pf_120h_%Growth_Rep2), 19.4%; in test [3] (P. falciparum, parasite screen 2 μg/mL, % growth, replicate 1, read-out: Pf_72h_%Growth_Rep1) it was 5.96%; in test [3] (P. falciparum, parasite screen 2 μg/mL, % growth, replicate 2, read-out: Pf_72h_%Growth_Rep2), 4.13%. In addition, the Mean in test [2] (T. gondii, 2 μg/mL, mean of both replicates, growth (% of control)) amounted to 25.60. In addition, in test [2] (setting [6]), the “Replicate 1” value stood at 39.74. Moreover, the “Replicate 2” value in test [2] (setting [6]) amounted to 11.46. Also, the percent parasite growth at 2 µg/mL was 39.7% in test [2] (T. gondii, parasite screen 2 μg/mL, % growth, replicate 1, read-out: Tg_72h_%Growth_Rep1) and 11.5% in test [2] (T. gondii, parasite screen 2 μg/mL, % growth, replicate 2, read-out: Tg_72h_%Growth_Rep2).
For `NC(=O)C#CC(N)=O` [Cellocidin], the Pf_120h_%Growth_Rep1 in test [1] (setting [7]) came out at 151.65%. In addition, the Pf_120h_%Growth_Rep2 in test [1] (setting [8]) amounted to 95.14%. Moreover, the Tg_72h_%Growth_Rep1 in test [2] (T. gondii, screen at 2 μg/mL, replicate 1) turned out to be 79.59%. In test [2] (T. gondii, screen at 2 μg/mL, replicate 2), the Tg_72h_%Growth_Rep2 is 92.91%. Further, the Pf_72h_%Growth_Rep1 in test [3] (setting [7]) was determined as 102.17%. For the same compound, in test [3] (setting [8]), the Pf_72h_%Growth_Rep2 was determined as 89.58%.
`C=C1CC[C@H]2[C@@](C)(CC[C@H]3C(C)(C)[C@@H](OC(C)=O)CC[C@]23C)[C@@H]1Cc1c(O)cc(C)oc1=O` [Aszonapyrone A] yielded a Pf_120h_%Growth_Rep1 in test [1] (setting [4]) of 67.56%. Further, the Pf_120h_%Growth_Rep2 in test [1] (setting [5]) is 67.36%. Besides, the Tg_72h_%Growth_Rep1 in test [2] (setting [4]) is given as 111.51%. The same compound registered a Tg_72h_%Growth_Rep2 in test [2] (setting [5]) of 88.05%. In addition, the Pf_72h_%Growth_Rep1 in test [3] (setting [4]) is listed as 77.27%. The Pf_72h_%Growth_Rep2 in test [3] (setting [5]) is 75.32%.
For the compound `C[C@@H](O)[C@H]1C(=O)N2C(C(=O)O)=C(S[C@@H]3CN[C@H](CNS(N)(=O)=O)C3)[C@H](C)[C@H]12` [Doripenem], the activity at 2 µg/mL in test [1] (library screen at 2 μg/mL, % growth, replicate 1, read-out: Pf_120h_%Growth_Rep1) amounted to 85.1%; in test [1] (library screen at 2 μg/mL, % growth, replicate 2, read-out: Pf_120h_%Growth_Rep2), 121%; in test [3] (library screen at 2 μg/mL, % growth, replicate 1, read-out: Pf_72h_%Growth_Rep1), 81.9%; in test [3] (library screen at 2 μg/mL, % growth, replicate 2, read-out: Pf_72h_%Growth_Rep2), 66.8%. Moreover, the percent parasite growth at 2 µg/mL amounted to 119% in test [2] (library screen at 2 μg/mL, % growth, replicate 1, read-out: Tg_72h_%Growth_Rep1) and 89.3% in test [2] (library screen at 2 μg/mL, % growth, replicate 2, read-out: Tg_72h_%Growth_Rep2).
On to `CCC1C=CC2C=C(C)C(OC3CC(C)(O)C(NC(C)=O)C(C)O3)C(C)C=C(C)C3C=CC4C(OC5CC(O)C(OC6CC(OC7CCC(O)C(C)O7)C(OC7CC(O)C(O)C(C)O7)C(C)O6)C(C)O5)C(C)CC(C)C4C3(C)C(O)=C3C(=O)OC2(C1)C3=O` (stereo not drawn) [Saccharocarcin A], for which, in test [1] (setting [9]), the Pf_120h_%Growth_Rep1 is reported as 14.27%. In addition, the Pf_120h_%Growth_Rep2 in test [1] (setting [10]) came out at 13.84%. The Tg_72h_%Growth_Rep1 in test [2] (setting [11]) was -0.34%. In test [2] (setting [12]), the Tg_72h_%Growth_Rep2 amounted to 2.07%. This compound also displayed a Pf_72h_%Growth_Rep1 in test [3] (setting [9]) of 25.38%. In test [3] (setting [10]), this compound returned a Pf_72h_%Growth_Rep2 of 12.51%.
In turn, Spirolaxine returned a Pf_120h_%Growth_Rep1 in test [1] (setting [9]) of 32.74%. The Pf_120h_%Growth_Rep2 in test [1] (setting [10]) stood at 18.31%. For the same compound, the Tg_72h_%Growth_Rep1 in test [2] (setting [11]) was 20.75%. The compound further returned a Tg_72h_%Growth_Rep2 in test [2] (setting [12]) of 22.73%. The compound also came in with a Pf_72h_%Growth_Rep1 in test [3] (setting [9]) of 54.30%. The compound also returned a Pf_72h_%Growth_Rep2 in test [3] (setting [10]) of 41.64%.
